Experimental data taken from ChEMBL document CHEMBL1201862, “PubChem BioAssay data set” (2004).
Activity calls are given as the source filed them.

Columns and labels:
[1] = target: T1, E3 ubiquitin-protein ligase XIAP (Homo sapiens, UniProt P98170); assay: Counter Screen using XIAP-Bir3 for Chemical Antagonists of Bir1/2 domains of IAP-family anti-apoptotic proteins. [Related pubchem assays (depositor defined):AID1018, AID1449, AID1514, AID1638, AID1749, AID1750, AID488957, AID488963]
[2] = target: T1, E3 ubiquitin-protein ligase XIAP; assay: XIAP antagonists, biochemical, IAP family, fluorescence polarization (AID 1018); assay type: functional
[3] = target: G-protein coupled receptor 55 (Homo sapiens, UniProt Q9Y2T6); assay: GPR55 antagonists blocking LPI-driven arrestin recruitment, primary screen, imaging, U2OS, beta-arrestin-GFP, LPI agonist (AID 2013); assay type: functional;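 note: antagonist potency measured as reduced agonist-driven arrestin aggregation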
Nonstructural protein 1 = Nonstructural protein 1 (Influenza A virus, UniProt Q194T2); assay type: functional, Influenza A virus (A/California/07/2009(H1N1))
Streptococcus = assay: Group A Streptococcus viability loss, dose response, counter-screen for streptokinase expression inhibitor project, luminescence, BacTiterGlo (AID 1915); assay type: functional, organism-based;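 note: potency for reduction of bacterial viability or growth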
[4] = microbe, parasite or virus in culture; assay type: functional; settings: Mycobacterium tuberculosis
[5] = test system: Streptococcus sp. 'group A'; assay: growth inhibition of control SK(-) GAS strain, dose response, counter-screen for streptokinase expression inhibitor project, luminescence, kanamycin, BacTiterGlo, confirmation (AID 1900); assay type: functional, organism-based
[6] = HepG2 cell cytotoxicity, dose response, cytotoxicity control for non-replicating M. tuberculosis project (AID 489018); assay type: functional; settings: Mycobacterium tuberculosis
[7] = THP-1 cell cytotoxicity, dose response, cytotoxicity control for non-replicating M. tuberculosis project (AID 489025); assay type: functional
cells = assay type: functional
[8] = Vero E6 cell cytotoxicity, dose response, cytotoxicity control for non-replicating M. tuberculosis project, secondary assay (AID 492998); assay type: functional, VeroE6; settings: Vero C1008
[9] = target: Peroxisome proliferator-activated receptor gamma/Nuclear receptor coactivator 1 (Homo sapiens, UniProt P37231); assay: TR-FRET dose response biochemical High Throughput Screening assay for agonists of the steroid receptor coactivator 1 (SRC-1) recruitment by the peroxisome proliferator-activated receptor gamma (PPAR gamma): non-selective agonists. [Related pubchem assays (depositor defined):AID1300, AID1808, AID504735, AID631]; assay type: protein assay
[10] = target: Peroxisome proliferator-activated receptor gamma/Nuclear receptor coactivator 3 (Homo sapiens, UniProt P37231); assay: TR-FRET dose response biochemical High Throughput Screening assay for agonists of the steroid receptor coactivator 3 (SRC-3) recruitment by the peroxisome proliferator-activated receptor gamma (PPAR gamma): non-selective agonists. [Related pubchem assays: 1301 (Confirmation screen.), 1048 (Primary screen.)]; assay type: functional
Cytochrome P450 2D6 = Cytochrome P450 2D6 (Homo sapiens, UniProt P10635);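 note: CYP2D6 member of a cytochrome P450 panel assay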
[11] = target: Peroxisome proliferator-activated receptor gamma/Nuclear receptor coactivator 2 (Homo sapiens, UniProt P37231); assay: TR-FRET dose response biochemical High Throughput Screening assay for agonists of the steroid receptor coactivator 2 (SRC-2) recruitment by the peroxisome proliferator-activated receptor gamma (PPAR gamma): non-selective agonists. [Related pubchem assays: 1297, 1032 ]; assay type: functional
[12] = target: Sphingosine 1-phosphate receptor 4 (Homo sapiens, UniProt O95977); assay: Fluorescence dose response cell-based high throughput screening assay for agonists of the Sphingosine 1-Phosphate Receptor 4 (S1P4). [Related pubchem assays: 1509 (Primary screen.), 1523 (Confirmation screen in triplicates.)]; assay type: functional
[13] = target: Sphingosine 1-phosphate receptor 1 (Homo sapiens, UniProt P21453); assay: Fluorescence-based counterscreen assay for S1P4 agonists: Cell-based dose response high throughput screening assay to identify agonists of the Sphingosine 1-Phosphate Receptor 1 (S1P1). [Related pubchem assays (depositor defined):AID1509, AID1523, AID1801, AID463107, AID463118, AID463119, AID463122, AID463123, AID463129, AID463225, AID504400, AID504460]; assay type: functional
Beta-galactosidase = Beta-galactosidase (Escherichia coli, UniProt Q8VNN2); assay type: functional
[14] = target: T2, Kappa-type opioid receptor (Homo sapiens, UniProt P41145); assay type: functional
[15] = target: T2, Kappa-type opioid receptor; assay type: functional; remark: listed apart in the source
Mu-type opioid receptor = Mu-type opioid receptor (Homo sapiens, UniProt P35372); assay: HTS Image-Based Screen for Agonists of the MOR Receptor. [Related pubchem assays (depositor defined):AID1777, AID1785, AID1786, AID2133]; assay type: functional;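 note: imaging of beta-arrestin GFP recruitment into spots after receptor activation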
[16] = target: T3, Delta-type opioid receptor (Homo sapiens, UniProt P41143); assay: HTS Image-Based Screen for Antagonists of the DOR Receptor. [Related pubchem assays (depositor defined):AID1777, AID1785, AID1786, AID2133]; assay type: functional
[17] = target: T3, Delta-type opioid receptor; assay: HTS Image-Based Screen for Agonists of the DOR Receptor. [Related pubchem assays (depositor defined):AID1777, AID1786, AID2133]; assay type: functional
Hexokinase HKDC1 = target: T4, Hexokinase HKDC1 (Homo sapiens, UniProt Q2TB90); assay: HKDC1 hexokinase inhibitors, dose response, biochemical, W721R variant (AID 504729); assay type: functional
T4 sequence (Q2TB90 whole entry): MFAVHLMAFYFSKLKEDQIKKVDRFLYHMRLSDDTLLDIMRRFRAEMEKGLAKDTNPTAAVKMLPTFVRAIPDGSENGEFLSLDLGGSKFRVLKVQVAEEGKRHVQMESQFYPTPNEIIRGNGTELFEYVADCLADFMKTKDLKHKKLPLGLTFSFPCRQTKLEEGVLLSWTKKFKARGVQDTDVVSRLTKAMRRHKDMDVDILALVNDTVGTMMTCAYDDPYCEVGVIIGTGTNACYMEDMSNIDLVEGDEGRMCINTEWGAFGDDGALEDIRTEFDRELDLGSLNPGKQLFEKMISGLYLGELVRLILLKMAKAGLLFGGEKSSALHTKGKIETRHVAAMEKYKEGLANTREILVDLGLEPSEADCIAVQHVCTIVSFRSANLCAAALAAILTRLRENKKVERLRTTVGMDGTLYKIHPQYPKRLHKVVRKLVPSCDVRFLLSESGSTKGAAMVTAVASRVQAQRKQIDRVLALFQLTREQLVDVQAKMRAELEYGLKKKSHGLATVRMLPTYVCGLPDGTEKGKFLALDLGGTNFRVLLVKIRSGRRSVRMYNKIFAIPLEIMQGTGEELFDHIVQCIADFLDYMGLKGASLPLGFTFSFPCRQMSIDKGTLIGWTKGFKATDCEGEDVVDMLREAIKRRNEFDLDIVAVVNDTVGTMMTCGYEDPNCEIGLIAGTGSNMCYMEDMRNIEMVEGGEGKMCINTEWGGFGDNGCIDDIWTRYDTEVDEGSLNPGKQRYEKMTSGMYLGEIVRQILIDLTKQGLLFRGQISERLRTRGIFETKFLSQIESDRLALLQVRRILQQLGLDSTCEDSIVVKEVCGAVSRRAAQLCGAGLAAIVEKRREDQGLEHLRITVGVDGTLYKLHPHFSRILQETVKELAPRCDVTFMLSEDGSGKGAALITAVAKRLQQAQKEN

[18] = Luminescence Cell-Based Dose Confirmation HTS to Identify Inhibitors of Platelet Dense Granule Release. [Related pubchem assays: 1663 (Primary HTS), 1678 (Summary of Project)]; assay type: functional
HEK293 [19] = assay: inhibitors of LMP1-driven NF-kB reporter, dose response, cell-based, HEK293, luciferase, cherry-pick (AID 588343); assay type: functional; settings: Homo sapiens
HEK293 [20] = assay: Cytotoxicity assay in HEK293 cells. [Related pubchem assays (depositor defined):AID1266, AID1269, AID1270, AID1271, AID1280, AID1281, AID1282, AID1283, AID1287, AID1289, AID1290, AID1291, AID1292, AID1293, AID1294, AID1295, AID1299, AID1302, AID1364, AID1365, AID1366, AID1367, AID1369, AID1370, AID1371, AID1372, AID1373, AID1374, AID1375, AID1384 …; assay type: functional, cell-based; settings: Homo sapiens
HEK293 [21] = assay: PMA/Ionomycin induced NF-kB luciferase assay in 293- NF-kB-Luc stable cells. [Related pubchem assays: 1299, 1270, 1295, 1375, 1287, 1281, 1293, 1291, 1289, 1280, 465, 1364, 1282, 1372, 1365, 1370, 1367, 1366, 1269, 1373, 1292, 1290, 1302, 1371, 1283, 1271, 1294, 1374, 1368, 1369 ]; assay type: functional, cell-based; settings: Homo sapiens
[22] = target: T5, Luciferin 4-monooxygenase (Photinus pyralis, UniProt P08659); assay: In vitro luciferase assay using purified luciferase. [Related pubchem assays: 1299, 1270, 1295, 1375, 1287, 1281, 1293, 1291, 1289, 1280, 465, 1364, 1282, 1372, 1365, 1370, 1367, 1366, 1266, 1373, 1292, 1290, 1302, 1371, 1283, 1271, 1294, 1374, 1368, 1369 ]
HEK293 [23] = assay: TNF Induced NF-kB Luciferase in 293-NF-kB-Luc Stable Cells. [Related pubchem assays: 1266, 1299, 1269, 1373, 1292, 1290, 1302, 1371, 1283, 1270, 1295, 1271, 1375, 1294, 1374, 1281, 1293, 1291, 1289, 1280, 465, 1368, 1364, 1282, 1372, 1365, 1369, 1370, 1367, 1366 ]; assay type: functional, cell-based; settings: Homo sapiens
[24] = target: T5, Luciferin 4-monooxygenase; assay: firefly luciferase enzyme inhibitors, dose response, biochemical, luminescence (AID 1891)
HeLa = assay: HeLa cell cytotoxicity, dose response, cytotoxicity control for MITF activator project, CellTiter-Glo luminescence, cherry-pick samples (AID 540259); assay type: functional, cell-based; settings: Homo sapiens
Trypsin = Trypsin (Sus scrofa, UniProt P00761); assay: porcine trypsin inhibitors, dose response, selectivity assay for Rce1 protease inhibitor project, biochemical, quenched peptide fluorescence, cherry-pick (AID 488789)
CAAX prenyl protease 2 = CAAX prenyl protease 2 (Saccharomyces cerevisiae S288c, UniProt Q03530); assay type: biochemical

T1 sequence (P98170 whole entry): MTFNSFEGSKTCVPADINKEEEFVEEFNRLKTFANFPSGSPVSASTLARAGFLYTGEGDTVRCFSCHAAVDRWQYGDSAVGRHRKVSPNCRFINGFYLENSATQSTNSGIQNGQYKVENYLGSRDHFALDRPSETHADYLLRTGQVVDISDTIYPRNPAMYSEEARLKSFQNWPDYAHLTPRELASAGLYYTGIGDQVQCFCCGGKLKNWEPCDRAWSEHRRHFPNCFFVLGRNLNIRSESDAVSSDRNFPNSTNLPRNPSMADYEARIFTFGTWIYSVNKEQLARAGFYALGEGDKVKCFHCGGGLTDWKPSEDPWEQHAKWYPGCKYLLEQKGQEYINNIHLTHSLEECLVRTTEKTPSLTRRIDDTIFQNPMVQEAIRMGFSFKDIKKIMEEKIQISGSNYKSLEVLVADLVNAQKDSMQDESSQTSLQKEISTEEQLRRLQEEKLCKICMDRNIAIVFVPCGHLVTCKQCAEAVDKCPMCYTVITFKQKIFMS
Sequence of Peroxisome proliferator-activated receptor gamma/Nuclear receptor coactivator 1 (P37231 whole entry): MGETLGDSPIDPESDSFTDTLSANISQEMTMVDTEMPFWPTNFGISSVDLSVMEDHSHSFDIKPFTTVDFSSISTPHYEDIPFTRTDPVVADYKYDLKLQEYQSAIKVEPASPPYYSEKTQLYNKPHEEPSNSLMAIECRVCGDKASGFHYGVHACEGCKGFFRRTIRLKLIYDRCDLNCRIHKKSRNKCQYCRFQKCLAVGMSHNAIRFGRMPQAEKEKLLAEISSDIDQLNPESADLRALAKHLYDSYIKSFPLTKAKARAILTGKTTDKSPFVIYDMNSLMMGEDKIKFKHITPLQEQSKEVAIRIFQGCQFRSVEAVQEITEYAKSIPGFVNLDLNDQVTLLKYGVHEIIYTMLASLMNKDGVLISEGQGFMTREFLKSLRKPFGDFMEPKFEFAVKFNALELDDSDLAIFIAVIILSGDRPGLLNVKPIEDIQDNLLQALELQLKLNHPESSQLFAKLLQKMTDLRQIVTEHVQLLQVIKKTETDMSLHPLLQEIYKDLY
Sequence of Peroxisome proliferator-activated receptor gamma/Nuclear receptor coactivator 1 (Q15788 whole entry, further chain): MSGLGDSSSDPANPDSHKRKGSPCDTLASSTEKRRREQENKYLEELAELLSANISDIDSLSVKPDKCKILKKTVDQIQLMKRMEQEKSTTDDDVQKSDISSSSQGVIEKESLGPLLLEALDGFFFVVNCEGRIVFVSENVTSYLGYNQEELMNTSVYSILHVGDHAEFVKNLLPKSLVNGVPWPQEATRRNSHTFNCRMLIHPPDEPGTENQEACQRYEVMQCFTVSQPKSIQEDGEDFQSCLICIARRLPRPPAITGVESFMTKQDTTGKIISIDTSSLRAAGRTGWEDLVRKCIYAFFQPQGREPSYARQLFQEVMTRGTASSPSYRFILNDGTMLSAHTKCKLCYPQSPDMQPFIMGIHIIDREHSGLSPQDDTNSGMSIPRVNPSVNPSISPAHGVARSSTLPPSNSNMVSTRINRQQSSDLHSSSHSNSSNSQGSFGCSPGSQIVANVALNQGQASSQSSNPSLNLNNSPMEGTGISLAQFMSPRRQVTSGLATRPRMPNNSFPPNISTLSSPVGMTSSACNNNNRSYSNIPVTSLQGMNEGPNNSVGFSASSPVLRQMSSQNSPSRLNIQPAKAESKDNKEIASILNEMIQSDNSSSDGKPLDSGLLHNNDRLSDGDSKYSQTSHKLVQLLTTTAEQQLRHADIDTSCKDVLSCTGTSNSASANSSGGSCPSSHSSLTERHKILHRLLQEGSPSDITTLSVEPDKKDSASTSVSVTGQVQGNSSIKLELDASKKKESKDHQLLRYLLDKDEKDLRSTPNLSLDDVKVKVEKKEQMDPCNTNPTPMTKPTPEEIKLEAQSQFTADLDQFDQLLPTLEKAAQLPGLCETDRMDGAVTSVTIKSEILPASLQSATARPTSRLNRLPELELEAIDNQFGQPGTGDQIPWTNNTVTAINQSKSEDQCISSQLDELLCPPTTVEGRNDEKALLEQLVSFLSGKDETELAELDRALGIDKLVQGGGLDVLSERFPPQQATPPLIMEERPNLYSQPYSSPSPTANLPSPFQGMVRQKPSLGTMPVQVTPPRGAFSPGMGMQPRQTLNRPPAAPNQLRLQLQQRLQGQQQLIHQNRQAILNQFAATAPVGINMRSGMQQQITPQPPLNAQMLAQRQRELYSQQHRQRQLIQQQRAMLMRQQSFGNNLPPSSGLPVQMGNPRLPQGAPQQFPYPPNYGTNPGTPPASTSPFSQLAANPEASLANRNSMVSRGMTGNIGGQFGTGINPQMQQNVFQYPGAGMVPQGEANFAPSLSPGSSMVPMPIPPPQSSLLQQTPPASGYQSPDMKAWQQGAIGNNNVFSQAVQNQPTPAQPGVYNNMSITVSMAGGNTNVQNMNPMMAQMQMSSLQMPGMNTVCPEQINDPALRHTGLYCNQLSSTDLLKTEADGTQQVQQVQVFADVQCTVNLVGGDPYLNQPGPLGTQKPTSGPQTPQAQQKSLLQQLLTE
Sequence of Peroxisome proliferator-activated receptor gamma/Nuclear receptor coactivator 2 (P37231 whole entry): as the sequence (P37231 whole entry) above
Sequence of Peroxisome proliferator-activated receptor gamma/Nuclear receptor coactivator 2 (Q15596 whole entry, further chain): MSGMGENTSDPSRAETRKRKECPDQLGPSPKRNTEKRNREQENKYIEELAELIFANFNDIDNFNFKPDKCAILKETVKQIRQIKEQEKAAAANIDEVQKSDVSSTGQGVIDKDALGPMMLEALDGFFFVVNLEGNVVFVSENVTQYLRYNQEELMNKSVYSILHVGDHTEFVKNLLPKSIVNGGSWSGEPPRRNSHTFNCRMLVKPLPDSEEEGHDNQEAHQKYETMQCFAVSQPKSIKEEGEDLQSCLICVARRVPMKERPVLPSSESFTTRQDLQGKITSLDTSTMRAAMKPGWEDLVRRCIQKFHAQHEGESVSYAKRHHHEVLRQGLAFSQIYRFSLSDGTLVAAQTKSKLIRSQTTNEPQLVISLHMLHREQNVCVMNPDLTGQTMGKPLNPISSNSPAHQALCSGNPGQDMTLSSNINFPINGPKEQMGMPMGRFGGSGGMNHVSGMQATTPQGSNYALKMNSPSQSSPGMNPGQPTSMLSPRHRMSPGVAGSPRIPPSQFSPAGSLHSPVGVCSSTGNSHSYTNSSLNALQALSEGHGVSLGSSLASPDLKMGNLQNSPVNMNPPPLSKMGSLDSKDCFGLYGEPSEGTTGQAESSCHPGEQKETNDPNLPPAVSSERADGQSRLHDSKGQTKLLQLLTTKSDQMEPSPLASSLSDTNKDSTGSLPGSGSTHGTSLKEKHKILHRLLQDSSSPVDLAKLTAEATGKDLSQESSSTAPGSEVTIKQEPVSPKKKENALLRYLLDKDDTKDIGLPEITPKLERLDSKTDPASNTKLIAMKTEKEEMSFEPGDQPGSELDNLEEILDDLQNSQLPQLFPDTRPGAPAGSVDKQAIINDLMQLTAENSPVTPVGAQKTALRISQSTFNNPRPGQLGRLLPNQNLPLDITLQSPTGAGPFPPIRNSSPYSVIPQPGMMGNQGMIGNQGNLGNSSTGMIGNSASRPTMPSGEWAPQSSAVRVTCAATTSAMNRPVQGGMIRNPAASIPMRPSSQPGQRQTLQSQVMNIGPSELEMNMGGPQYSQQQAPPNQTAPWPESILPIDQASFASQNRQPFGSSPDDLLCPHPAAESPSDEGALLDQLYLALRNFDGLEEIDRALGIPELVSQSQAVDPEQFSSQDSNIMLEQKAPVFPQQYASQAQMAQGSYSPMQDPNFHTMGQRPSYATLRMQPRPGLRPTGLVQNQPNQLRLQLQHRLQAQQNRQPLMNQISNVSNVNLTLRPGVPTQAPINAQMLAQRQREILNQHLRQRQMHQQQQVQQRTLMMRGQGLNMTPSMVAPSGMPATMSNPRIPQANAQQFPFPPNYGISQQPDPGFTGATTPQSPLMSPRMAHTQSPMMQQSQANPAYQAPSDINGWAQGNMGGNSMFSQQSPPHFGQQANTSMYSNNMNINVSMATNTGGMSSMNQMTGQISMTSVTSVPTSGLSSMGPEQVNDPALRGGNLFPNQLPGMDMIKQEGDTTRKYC
T3 sequence (P41143 whole entry): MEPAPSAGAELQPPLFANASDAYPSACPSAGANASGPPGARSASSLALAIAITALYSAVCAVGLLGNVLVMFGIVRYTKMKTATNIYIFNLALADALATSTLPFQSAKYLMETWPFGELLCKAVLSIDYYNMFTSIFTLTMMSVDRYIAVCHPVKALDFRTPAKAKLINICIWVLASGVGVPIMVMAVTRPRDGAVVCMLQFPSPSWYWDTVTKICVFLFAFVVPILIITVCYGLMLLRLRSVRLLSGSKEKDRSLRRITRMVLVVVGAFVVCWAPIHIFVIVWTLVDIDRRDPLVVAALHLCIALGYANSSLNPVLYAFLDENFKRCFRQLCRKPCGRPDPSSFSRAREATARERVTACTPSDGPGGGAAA
Sequence of Nonstructural protein 1 (Q194T2 whole entry): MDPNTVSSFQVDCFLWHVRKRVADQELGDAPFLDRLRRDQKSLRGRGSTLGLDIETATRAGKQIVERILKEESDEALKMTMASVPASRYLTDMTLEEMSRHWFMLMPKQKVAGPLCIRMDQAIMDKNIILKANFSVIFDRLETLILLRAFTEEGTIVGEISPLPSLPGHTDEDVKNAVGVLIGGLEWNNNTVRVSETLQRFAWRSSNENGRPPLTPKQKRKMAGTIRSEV

CC1(C)CC(=O)N(CC(=O)O)c2ccccc2S1(=O)=O
IC50 [1]: > 100 µM (inactive) | IC50 [2]: > 100 µM (not active)

CCOc1ccc(NC(=O)c2ccccc2OCC(=O)c2ccccc2)cc1
IC50 [3]: 1.74 µM (active)

Cc1ccc(N(C)C(=O)c2cc(S(=O)(=O)N3CCc4ccccc43)cn2C)cc1
IC50 [3]: 0.769 µM (active)

COCc1cc(O)nc(Nc2nc3ccccc3o2)n1
IC50 (Nonstructural protein 1): 10.8 µM (active) | EC50 (Streptococcus): 9.09 µM (active) | CC50 [4]: 16 µM (active) | EC50 [5]: 2.21 µM (active) | CC50 [6]: 16.8 µM (active) | CC50 [7]: 19.4 µM (active) | IC50 (cells): 1.85 µM (active) | CC50 [8]: 7.52 µM (active)

O=C1C=C(c2cccs2)CC(c2cccs2)C1n1cnc([N+](=O)[O-])c1 (stereo unspecified)
EC50 [9]: 18.5 µM (inactive) | EC50 [10]: > 79.4 µM (not active) | AC50 (Cytochrome P450 2D6): 15.8 µM (inconclusive) | EC50 [11]: 20.7 µM (not active)

Cn1c(SCC(=O)c2ccc3c(c2)OCO3)nnc1C1COc2ccccc2O1 (stereo unspecified)
EC50 [12]: > 49.8 µM (not active) | EC50 [13]: > 49.8 µM (inactive)

Cc1cccc(C(=O)NC2CC3CCCC(C2)N3Cc2ccccc2)c1 (stereo unspecified)
EC50 (Beta-galactosidase): > 31.5 µM (inactive) | IC50 [14]: 19.9 µM | IC50 [15]: 15.7 µM (active) | EC50 (Mu-type opioid receptor): > 32 µM (inactive) | IC50 [16]: > 32 µM (inactive) | EC50 [17]: > 32 µM (inactive)

CC(C)Nc1nnc(SCC(=O)Nc2ccc3c(c2)C(=O)c2ccccc2C3=O)s1
IC50 (Hexokinase HKDC1): 29.7 µM (inactive)

Cc1cccc2c(N=NC(=O)c3ccc(NS(=O)(=O)c4cccs4)cc3)c(O)[nH]c12
IC50 (Hexokinase HKDC1): 15.5 µM (active)

Cc1ccccc1Oc1nnc(-c2cccs2)c2ccccc12
IC50 [1]: > 100 µM (inactive) | IC50 [2]: > 100 µM (not active)

CC(=O)c1ccc(-c2nc3c4ccccc4ccn3c2C(C)=O)o1
EC50 [18]: > 112 µM (not active) | AC50 (HEK293 [19]): 3.1 µM (active) | EC50 (HEK293 [20]): > 8 µM (inactive) | EC50 (HEK293 [21]): 0.0552 µM (active) | EC50 [22]: > 8 µM (not active) | EC50 (HEK293 [23]): 0.503 µM (active) | EC50 [24]: > 112 µM (not active)

O=C(Nc1ccccc1)c1ccc(-c2ccccc2)s1
EC50 [9]: 8.84 µM (active) | EC50 [10]: 35 µM (not active) | EC50 [11]: 10.6 µM (not active) | AC50 (HeLa): 48 µM (active)

Cc1cccc(/C=N/NC(=O)c2ccc(Br)cc2)c1
AC50 (Trypsin): 7.5 µM (active) | AC50 (CAAX prenyl protease 2): 7.44 µM (active)
